Reference: ChEMBL document CHEMBL1926625, “Identification of benzoxazin-3-one derivatives as novel, potent, and selective nonsteroidal mineralocorticoid receptor antagonists” (J Med Chem, 2011)
pIC50: −log10 of the molar value.

How the values were obtained:
[1] = biological target: T1, Androgen receptor (Homo sapiens, UniProt P10275); experiment: Displacement of [3H]testosterone from AR
T1 sequence (P10275 whole entry): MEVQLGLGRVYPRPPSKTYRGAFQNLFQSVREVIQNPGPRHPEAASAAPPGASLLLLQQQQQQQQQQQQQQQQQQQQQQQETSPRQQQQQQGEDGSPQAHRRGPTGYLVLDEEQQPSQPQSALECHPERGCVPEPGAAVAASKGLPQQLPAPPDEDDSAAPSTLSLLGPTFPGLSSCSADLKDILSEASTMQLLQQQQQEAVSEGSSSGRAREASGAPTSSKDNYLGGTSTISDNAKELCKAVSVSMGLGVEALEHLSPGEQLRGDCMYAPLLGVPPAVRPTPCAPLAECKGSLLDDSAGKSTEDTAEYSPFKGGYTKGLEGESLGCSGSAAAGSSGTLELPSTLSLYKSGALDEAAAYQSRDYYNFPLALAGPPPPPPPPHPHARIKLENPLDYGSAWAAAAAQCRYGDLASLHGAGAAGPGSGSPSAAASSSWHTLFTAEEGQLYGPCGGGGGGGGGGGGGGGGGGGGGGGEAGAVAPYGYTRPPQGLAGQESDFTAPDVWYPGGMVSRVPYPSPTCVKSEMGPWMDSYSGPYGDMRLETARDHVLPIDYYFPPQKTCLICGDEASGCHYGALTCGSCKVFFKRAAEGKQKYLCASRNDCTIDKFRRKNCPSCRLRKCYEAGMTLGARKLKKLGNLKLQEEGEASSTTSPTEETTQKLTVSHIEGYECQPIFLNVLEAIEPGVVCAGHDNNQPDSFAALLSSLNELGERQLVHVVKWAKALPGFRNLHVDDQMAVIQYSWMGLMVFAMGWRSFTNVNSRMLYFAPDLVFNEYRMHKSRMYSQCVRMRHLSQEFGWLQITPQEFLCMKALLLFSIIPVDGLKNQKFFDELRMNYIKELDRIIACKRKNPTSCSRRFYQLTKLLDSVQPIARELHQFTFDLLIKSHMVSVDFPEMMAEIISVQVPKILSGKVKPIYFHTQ

[2] = Mean residence time in Sprague-Dawley rat at 10 mg/kg, po; format: ADME, organism-based; parameters: dose 10 mg/kg, route oral; settings: in vivo

- pIC50 [1]: < 5.00
- MRT [2]: 4.39 h
Structure (SMILES): Cc1cc(F)ccc1-n1nc(C(F)(F)F)cc1-c1ccc2c(c1)NC(=O)CO2
